Each structure is given as a SMILES string.

Usually bioavailability stands for dose-corrected exposure relative to a reference, in per cent. As a reminder, the IC50 is the midpoint of a concentration-inhibition curve. Low values mean inhibition by little substance, high ones a need for much substance. The AUC(0-inf) is the area under the concentration-time curve extrapolated to infinity. Usually Papp A→B stands for how fast a substance crosses the layer from the apical side. Broadly, the Vd is the apparent volume that relates the amount in the body to the concentration in plasma or blood. Read a low Vd as little distribution into tissue. As a reminder, the Cmax is the highest concentration seen after dosing.

Series [1] can be described thus: Oral bioavailability in rat at 5 mg/kg. The format is ADME, organism-based. To be noted: in vivo.
Series [2] concerns the target Cytochrome P450 2C19 (Homo sapiens, UniProt P33261). Nature of the series: Inhibition of CYP2C19 in human pooled liver microsomes using S-mephenytoin as substrate by LC/MS/MS analysis.
Series [3] in a line: AUC (0 to infinity) in rat at 1 mg/kg, iv. The format is ADME, organism-based. Set-up: dose 1 mg/kg, route intravenous, time infinity. The conditions noted are these: plasma.
A short description of series [4]: (§1) AUC (0 to infinity) in rat at 5 mg/kg, po. The format is ADME, organism-based, Plasma. Further details: dose 5 mg/kg, route oral, time infinity. The conditions noted are these: plasma.
Series [5] can be described thus: Apparent permeability of the compound from apical to basolateral side in human Caco2 cells by absorption system analysis. The conditions noted are these: Caco-2. A general note: Caco-2 monolayers are a common model of the intestinal barrier.
For series [6], the target named is Voltage-gated inwardly rectifying potassium channel KCNH2 (Homo sapiens, UniProt Q12809). Nature of the series: Inhibition of human ERG by automated patch-clamp assay. Background: Patch clamp records ionic current or voltage across a cell membrane.
Series [7] concerns the target T1, Cytochrome P450 3A4 (Homo sapiens, UniProt P08684). Put plainly: Inhibition of CYP3A4 in human pooled liver microsomes using testosterone as substrate by LC/MS/MS analysis. In general terms: Liver microsomes are vesicles of endoplasmic reticulum, rich in cytochrome P450 enzymes.
Series [8] has as its target Cytochrome P450 2D6 (Homo sapiens, UniProt P10635). Nature of the series: Inhibition of CYP2D6 in human pooled liver microsomes using dextromethorphan as substrate by LC/MS/MS analysis.
The target in series [9] is T2, Cytochrome P450 1A2 (Homo sapiens, UniProt P05177).
T2 sequence (P05177 whole entry): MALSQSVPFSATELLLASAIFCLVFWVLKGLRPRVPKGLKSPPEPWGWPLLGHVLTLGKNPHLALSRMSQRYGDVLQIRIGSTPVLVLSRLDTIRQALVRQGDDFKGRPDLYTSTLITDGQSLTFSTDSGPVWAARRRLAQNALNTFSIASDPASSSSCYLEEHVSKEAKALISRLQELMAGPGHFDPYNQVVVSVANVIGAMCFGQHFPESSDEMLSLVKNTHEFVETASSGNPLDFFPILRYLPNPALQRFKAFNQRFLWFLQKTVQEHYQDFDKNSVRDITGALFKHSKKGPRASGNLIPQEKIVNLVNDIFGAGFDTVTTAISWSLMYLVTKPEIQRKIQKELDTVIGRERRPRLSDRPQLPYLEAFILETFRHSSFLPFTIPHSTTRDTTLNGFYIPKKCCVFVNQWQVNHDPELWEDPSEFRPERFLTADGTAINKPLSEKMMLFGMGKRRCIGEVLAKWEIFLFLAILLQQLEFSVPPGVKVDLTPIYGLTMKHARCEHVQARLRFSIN
Nature of the series: Inhibition of CYP1A2 in human pooled liver microsomes using phenacetin as substrate by LC/MS/MS analysis.

Series [10] concerns Rattus norvegicus. Put plainly: Volume of distribution in rat at 1 mg/kg, iv. To be noted: in vivo. The format is ADME, organism-based. Set-up: dose 1 mg/kg, route intravenous.
Series [11] concerns the target Cytochrome P450 2C9 (Homo sapiens, UniProt P11712). Put plainly: Inhibition of CYP2C9 in human pooled liver microsomes using diclofenac as substrate by LC/MS/MS analysis.
The nature of series [12]: (§2) Cmax in rat at 5 mg/kg, po. Set-up: dose 5 mg/kg, route oral. To be noted: in vivo. The format is ADME, organism-based.
The target in series [13] is T1, Cytochrome P450 3A4. Nature of the series: Inhibition of CYP3A4 in human pooled liver microsomes using midazolam as substrate by LC/MS/MS analysis.
The test system of series [14] is Rattus norvegicus. Put plainly: Half life in rat at 1 mg/kg, iv. Further details: dose 1 mg/kg, route intravenous. The format is ADME, organism-based. To be noted: in vivo.
For series [15], the system named is Rattus norvegicus. Described as §1. Further details: dose 5 mg/kg, route oral, time infinity. The format is ADME, organism-based, Plasma. The conditions noted are these: in vivo, BLD = below limit of detection.
Series [16] has as its system Rattus norvegicus. The description is as §2. The format is ADME, organism-based. Further details: dose 5 mg/kg, route oral. The conditions noted are these: in vivo, BLD = below limit of detection.
In series [17] the target is ALK tyrosine kinase receptor (Homo sapiens, UniProt Q9UM73). Nature of the series: Inhibition of ALK (unknown origin).
Chain of ALK tyrosine kinase receptor (Q9UM73 whole entry): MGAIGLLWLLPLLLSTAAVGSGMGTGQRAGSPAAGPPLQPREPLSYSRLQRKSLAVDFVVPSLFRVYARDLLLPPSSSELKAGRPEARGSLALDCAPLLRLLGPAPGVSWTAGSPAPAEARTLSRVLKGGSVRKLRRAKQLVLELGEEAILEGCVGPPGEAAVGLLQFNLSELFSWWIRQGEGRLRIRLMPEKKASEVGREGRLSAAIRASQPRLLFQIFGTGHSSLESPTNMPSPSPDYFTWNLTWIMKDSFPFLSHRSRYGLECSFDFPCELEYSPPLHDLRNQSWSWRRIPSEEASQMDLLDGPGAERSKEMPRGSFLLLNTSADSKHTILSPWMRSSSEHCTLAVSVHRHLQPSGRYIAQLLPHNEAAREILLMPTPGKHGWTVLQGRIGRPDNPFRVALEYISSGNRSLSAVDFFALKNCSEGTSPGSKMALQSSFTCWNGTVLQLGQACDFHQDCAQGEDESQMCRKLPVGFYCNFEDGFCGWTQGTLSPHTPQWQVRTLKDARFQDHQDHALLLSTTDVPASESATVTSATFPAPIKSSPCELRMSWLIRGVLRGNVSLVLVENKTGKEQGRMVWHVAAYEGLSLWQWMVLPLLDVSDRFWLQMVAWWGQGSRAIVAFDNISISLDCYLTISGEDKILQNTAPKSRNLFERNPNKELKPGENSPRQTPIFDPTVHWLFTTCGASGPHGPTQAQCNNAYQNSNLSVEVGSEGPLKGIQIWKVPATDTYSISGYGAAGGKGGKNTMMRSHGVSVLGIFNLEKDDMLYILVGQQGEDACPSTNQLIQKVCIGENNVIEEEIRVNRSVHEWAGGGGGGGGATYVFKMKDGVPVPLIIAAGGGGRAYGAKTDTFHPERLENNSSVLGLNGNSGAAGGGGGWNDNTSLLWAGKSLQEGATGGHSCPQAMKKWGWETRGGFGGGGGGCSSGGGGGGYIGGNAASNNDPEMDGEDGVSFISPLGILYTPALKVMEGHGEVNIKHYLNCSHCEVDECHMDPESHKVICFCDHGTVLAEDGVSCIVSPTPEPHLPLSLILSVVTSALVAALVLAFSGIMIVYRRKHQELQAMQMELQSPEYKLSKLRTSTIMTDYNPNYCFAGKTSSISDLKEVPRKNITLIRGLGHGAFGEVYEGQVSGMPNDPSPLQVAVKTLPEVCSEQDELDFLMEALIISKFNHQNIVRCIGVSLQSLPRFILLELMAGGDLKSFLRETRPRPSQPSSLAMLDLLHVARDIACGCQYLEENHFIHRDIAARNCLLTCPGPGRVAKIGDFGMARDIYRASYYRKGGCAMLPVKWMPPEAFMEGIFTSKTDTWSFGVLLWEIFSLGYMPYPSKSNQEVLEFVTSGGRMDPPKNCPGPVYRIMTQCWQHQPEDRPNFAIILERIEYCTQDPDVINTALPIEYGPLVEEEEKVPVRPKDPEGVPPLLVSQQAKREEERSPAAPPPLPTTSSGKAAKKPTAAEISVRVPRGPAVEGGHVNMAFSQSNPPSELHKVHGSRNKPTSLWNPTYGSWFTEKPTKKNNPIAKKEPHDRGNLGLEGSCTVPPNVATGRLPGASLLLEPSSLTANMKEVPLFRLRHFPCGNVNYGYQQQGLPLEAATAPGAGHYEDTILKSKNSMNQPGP
In series [18] the test system is Liver microsome. Nature of the series: Metabolic stability in human liver microsomes assessed as GSH conjugation by LC/MS analysis. The format is ADME.
Series [19] deals with Liver microsome. Nature of the series: Bioactivation in human liver microsomes in presence of NADPH.
The target of series [20] is Insulin receptor (Homo sapiens, UniProt P06213). Put plainly: Inhibition of insulin receptor kinase (unknown origin).
Chain of Insulin receptor (P06213 28-758 limits assumed): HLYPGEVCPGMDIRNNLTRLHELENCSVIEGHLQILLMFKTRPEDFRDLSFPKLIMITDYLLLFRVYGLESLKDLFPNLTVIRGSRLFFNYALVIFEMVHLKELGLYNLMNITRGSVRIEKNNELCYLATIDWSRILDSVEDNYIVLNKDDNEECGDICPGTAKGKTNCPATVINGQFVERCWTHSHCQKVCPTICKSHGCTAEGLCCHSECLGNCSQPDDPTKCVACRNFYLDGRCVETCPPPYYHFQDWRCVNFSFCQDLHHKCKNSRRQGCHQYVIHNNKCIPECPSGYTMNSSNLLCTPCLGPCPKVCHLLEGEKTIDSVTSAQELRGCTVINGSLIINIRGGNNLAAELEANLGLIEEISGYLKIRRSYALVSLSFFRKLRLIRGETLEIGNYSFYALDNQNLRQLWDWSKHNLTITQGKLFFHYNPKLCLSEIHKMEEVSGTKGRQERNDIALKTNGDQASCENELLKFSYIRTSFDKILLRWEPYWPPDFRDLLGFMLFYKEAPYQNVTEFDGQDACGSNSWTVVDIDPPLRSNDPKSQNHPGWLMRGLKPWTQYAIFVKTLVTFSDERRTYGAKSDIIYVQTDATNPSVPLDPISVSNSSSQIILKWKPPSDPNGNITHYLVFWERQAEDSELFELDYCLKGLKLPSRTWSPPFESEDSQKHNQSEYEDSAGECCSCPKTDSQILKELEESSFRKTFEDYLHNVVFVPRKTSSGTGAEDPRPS
Chain of Insulin receptor (P06213 763-1382 limits assumed): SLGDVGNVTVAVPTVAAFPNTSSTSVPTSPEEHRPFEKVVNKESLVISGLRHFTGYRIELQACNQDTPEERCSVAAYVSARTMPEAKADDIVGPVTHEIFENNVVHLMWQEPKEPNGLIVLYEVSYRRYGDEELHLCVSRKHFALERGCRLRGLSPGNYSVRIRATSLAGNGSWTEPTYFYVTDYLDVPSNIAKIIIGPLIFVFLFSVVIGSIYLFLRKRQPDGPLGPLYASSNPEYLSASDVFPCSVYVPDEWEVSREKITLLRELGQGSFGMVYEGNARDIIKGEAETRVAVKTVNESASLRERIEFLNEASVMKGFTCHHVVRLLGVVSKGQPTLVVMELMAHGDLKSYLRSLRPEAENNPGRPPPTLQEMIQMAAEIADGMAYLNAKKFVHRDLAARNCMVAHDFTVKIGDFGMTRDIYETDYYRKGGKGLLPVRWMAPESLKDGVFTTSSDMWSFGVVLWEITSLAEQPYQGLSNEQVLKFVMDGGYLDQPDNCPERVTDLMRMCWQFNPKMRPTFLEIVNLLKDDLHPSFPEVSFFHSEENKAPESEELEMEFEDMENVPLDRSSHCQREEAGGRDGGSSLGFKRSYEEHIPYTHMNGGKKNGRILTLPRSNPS

T1 sequence (P08684 whole entry): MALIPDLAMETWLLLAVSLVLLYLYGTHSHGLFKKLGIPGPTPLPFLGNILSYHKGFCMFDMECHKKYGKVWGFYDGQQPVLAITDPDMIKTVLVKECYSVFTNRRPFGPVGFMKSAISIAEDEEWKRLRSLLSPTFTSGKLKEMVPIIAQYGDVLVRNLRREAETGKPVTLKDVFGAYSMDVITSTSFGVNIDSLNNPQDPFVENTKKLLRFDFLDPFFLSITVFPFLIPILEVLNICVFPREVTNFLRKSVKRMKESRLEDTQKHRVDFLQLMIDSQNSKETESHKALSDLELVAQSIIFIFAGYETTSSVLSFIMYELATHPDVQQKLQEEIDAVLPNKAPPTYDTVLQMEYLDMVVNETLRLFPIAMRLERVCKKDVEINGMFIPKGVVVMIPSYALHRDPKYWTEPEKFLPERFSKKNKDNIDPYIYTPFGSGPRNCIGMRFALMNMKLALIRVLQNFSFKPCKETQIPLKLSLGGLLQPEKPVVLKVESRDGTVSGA
Chain of Cytochrome P450 2C19 (P33261 whole entry): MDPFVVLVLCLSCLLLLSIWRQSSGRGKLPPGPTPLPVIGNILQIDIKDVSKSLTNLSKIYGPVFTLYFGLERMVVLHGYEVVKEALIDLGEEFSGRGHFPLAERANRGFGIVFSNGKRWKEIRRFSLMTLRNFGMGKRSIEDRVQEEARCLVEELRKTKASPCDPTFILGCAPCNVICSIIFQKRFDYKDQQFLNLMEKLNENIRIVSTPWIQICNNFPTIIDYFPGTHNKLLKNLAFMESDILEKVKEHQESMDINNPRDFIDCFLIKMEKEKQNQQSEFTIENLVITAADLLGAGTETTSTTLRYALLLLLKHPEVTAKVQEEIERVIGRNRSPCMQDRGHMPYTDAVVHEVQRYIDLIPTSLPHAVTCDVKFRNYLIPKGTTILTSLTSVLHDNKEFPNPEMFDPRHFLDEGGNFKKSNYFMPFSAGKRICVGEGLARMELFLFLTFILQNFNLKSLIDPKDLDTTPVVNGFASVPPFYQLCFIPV
Chain of Cytochrome P450 2D6 (P10635 whole entry): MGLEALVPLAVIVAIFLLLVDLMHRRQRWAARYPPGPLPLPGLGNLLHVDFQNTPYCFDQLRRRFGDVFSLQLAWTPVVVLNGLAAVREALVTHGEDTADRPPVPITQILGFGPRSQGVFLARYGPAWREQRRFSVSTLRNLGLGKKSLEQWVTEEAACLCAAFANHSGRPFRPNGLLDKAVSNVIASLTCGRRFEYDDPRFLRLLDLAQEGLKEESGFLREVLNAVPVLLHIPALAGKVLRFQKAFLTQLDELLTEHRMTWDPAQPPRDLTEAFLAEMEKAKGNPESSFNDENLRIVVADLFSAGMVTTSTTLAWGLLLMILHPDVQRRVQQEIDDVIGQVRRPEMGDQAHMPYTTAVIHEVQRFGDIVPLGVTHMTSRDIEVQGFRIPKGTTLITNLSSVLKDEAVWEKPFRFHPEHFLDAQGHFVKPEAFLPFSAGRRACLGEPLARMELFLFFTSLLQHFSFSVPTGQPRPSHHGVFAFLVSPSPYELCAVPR
Chain of Cytochrome P450 2C9 (P11712 whole entry): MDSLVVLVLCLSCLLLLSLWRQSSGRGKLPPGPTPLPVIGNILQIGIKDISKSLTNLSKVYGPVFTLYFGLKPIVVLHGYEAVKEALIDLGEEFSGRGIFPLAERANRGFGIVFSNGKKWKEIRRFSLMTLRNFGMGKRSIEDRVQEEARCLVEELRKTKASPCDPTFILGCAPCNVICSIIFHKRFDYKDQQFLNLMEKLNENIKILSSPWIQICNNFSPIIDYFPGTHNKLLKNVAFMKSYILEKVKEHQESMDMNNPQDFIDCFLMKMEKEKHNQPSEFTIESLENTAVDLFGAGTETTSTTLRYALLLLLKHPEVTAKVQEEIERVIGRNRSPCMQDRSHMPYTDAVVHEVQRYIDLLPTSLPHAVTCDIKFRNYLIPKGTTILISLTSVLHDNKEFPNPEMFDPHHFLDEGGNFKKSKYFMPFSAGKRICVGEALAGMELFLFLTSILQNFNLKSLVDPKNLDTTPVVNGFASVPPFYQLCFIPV

Turning to `COc1cc(N2CCN(C)CC2)ccc1-c1nc2c(N[C@H]3[C@@H](C(N)=O)[C@@H]4C=C[C@H]3C4)c(Cl)cnc2[nH]1`, the bioavailability in [1] was found to be 7%. The IC50 in [2] is > 30 µM; in series [6], > 10 µM; in series [7], 8.5 µM; in series [8], > 30 µM; in [9], > 30 µM; in series [11], > 30 µM. In series [13], the midpoint of inhibition, the IC50, lay at 13.7 µM. Further, the results for the AUC(0-inf) in [3] and in series [4] were 416 ng·h/mL and 148 ng·h/mL, respectively. For the same compound, in [5], the Papp A→B is 5 ×10⁻⁶ cm/s. Besides, the Vd in series [10] was 5.3 L/kg. This compound gave a Cmax in series [12] of 26 ng/mL. The t1/2 in [14] is 1.4 h.
As to `COc1cc(CN2CCN(C)CC2)ccc1-c1nc2c(N[C@H]3[C@@H](C(N)=O)[C@@H]4C=C[C@H]3C4)c(Cl)cnc2[nH]1`, the bioavailability in series [1] was 0%. In [3], this compound came in with an AUC(0-inf) of 1140 ng·h/mL. In addition, the AUC result in series [15] was “BLD”. In addition, the Vd in series [10] turned out to be 1.6 L/kg. Moreover, in series [16], the Cmax entry was “BLD”. In series [14], this compound registered a t1/2 of 1.1 h.
`COc1cc(CN2CCOCC2)ccc1-c1nc2c(N[C@H]3[C@@H](C(N)=O)[C@@H]4C=C[C@H]3C4)c(Cl)cnc2[nH]1` showed a bioavailability in series [1] of 76%. The IC50 in [2], in series [7], in [8], in series [9], in series [11] and in series [13] was > 30 µM throughout. In addition, the AUC(0-inf) worked out at 451 ng·h/mL in [3] and 1730 ng·h/mL in series [4]. In addition, the Papp A→B in [5] stood at 10.8 ×10⁻⁶ cm/s. In [10], this compound yielded a Vd of 5.6 L/kg. Moreover, the Cmax in series [12] was 317 ng/mL. Besides, the t1/2 in series [14] is 1.6 h.
In the case of `CN1CCN(c2ccc(-c3nc4c(N[C@H]5[C@@H](C(N)=O)[C@@H]6C=C[C@H]5C6)ccnc4[nH]3)cc2)CC1`, the IC50 in series [17] was > 3 µM.
In the case of `COc1cc(N2CCC(N3CCOCC3)CC2)ccc1-c1nc2c(N[C@H]3[C@@H](C(N)=O)[C@@H]4C=C[C@H]3C4)c(Cl)cnc2[nH]1`, the bioavailability in [1] is 8%. For the same compound, the AUC(0-inf) in [3] stood at 1750 ng·h/mL; in series [4], 740 ng·h/mL. This compound yielded a Vd in series [10] of 1.8 L/kg. In addition, in series [12], the concentration peaked (Cmax) at 158 ng/mL. This compound had a t1/2 in series [14] of 1.9 h.
With `COc1cc(N2CCOCC2)ccc1-c1nc2c(N[C@H]3[C@@H](C(N)=O)[C@@H]4C=C[C@H]3C4)c(Cl)cnc2[nH]1`, in series [1], the bioavailability came to 21%. For the same compound, the AUC(0-inf) was 2480 ng·h/mL in [3] and 2580 ng·h/mL in [4]. Further, the Stability result in series [18] and in series [19] was “Stable” in each case. The compound further displayed a Vd in series [10] of 0.8 L/kg. This compound displayed a Cmax in [12] of 429 ng/mL. Moreover, the t1/2 in series [14] stood at 1.4 h.
As for `COc1cc(N2CCC(N3CCN(C)CC3)CC2)ccc1-c1nc2c(N[C@H]3[C@@H](C(N)=O)[C@@H]4C=C[C@H]3C4)c(Cl)cnc2[nH]1`, the bioavailability in series [1] came to 0%. The IC50 in series [2], in series [7], in series [8], in [9], in series [11] and in series [13] was > 30 µM each time. The same compound registered an AUC(0-inf) in series [3] of 1430 ng·h/mL. The AUC result in series [15] is “BLD”. In series [10], this compound yielded a distribution volume (Vd) of 3 L/kg. For the same compound, in series [16], the Cmax entry is recorded as “BLD”. The compound further had a t1/2 in series [14] of 2.5 h.
As for `NC(=O)[C@@H]1[C@H](Nc2ccnc3[nH]c(-c4ccc(N5CCOCC5)cc4)nc23)[C@H]2C=C[C@@H]1C2`, in [17], the IC50 was > 10 µM.
For `COc1cccc(-c2nc3c(N[C@H]4[C@@H](C(N)=O)[C@@H]5C=C[C@H]4C5)c(Cl)cnc3[nH]2)c1`, the IC50 in series [20] was > 3 µM.

(Values after ChEMBL document CHEMBL3217622, “Design of 7-amino-6-chloro-3H-imidazo[4,5-b]pyridine scaffold from 5-chloro-2,4-diaminopyrimidine pharmacophore: identification of potent inhibitors of anaplastic lymphoma kinase” (Medchemcomm, 2012).)
